Data: US10421718B2, “EBNA1 inhibitors and their method of use” (priority 2013, dated 2019)

Each compound was assayed against T1, His-EBNA1 (DNA binding domain of EBNA1, amino acids 459-607) (Epstein-Barr virus, UniProt P03211) (assay: Inhibition of 5′-biotin-oPL4624 binding to His-EBNA1 using Alpha Screen technology). Conditions: Alpha Screen Activity (IC50, inhibition of 5′-biotin-oPL4624 binding to His-EBNA1), 15 nM His-EBNA1, 0.2 nM bt-oPL4624, 2 hr room temperature.
T1 construct: made in house; host or cells: E. coli
T1 sequence (P03211 459-607): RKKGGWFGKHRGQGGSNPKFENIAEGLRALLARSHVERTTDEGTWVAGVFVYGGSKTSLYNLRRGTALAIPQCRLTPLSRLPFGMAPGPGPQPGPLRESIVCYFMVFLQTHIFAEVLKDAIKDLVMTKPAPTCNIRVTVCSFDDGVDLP
Method in brief: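 His-tagged EBNA1 DNA-binding domain (aa 459-607, E. coli-expressed) at 15 nM with 0.2 nM biotinylated self-complementary oligo, streptavidin donor and nickel acceptor beads, in 25 mM Tris pH 7.2, 160 mM NaCl, 1 mM MgCl2. Compound 3.2 nM-100 μM final; AlphaScreen read after 2 h at room temperature, one-site dose-response fit.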
With Cc1nc2cc(-c3c(C#Cc4cscn4)cccc3C(=O)O)ccc2s1 [Entry 173] the IC50 was 10 to 100 µM.
O=C(O)c1cccc(C#Cc2ccncc2)c1-c1c[nH]c2ccccc12 [Entry 174, 2-(1H-indol-3-yl)-3-[2-(pyridin-4-yl)ethynyl]benzoic acid] was tested, and the IC50 was 1 to 10 µM.
CN(C)c1ccc(-c2c(C#Cc3ccncc3)cccc2C(=O)O)cc1 [Entry 175, 2-[4-(dimethylamino)phenyl]-3-[2-(pyridin-4-yl)ethynyl]benzoic acid] gave an IC50 of 10 to 100 µM.
Compound CN1CCOc2cc(-c3c(C#Cc4ccncc4)cccc3C(=O)O)ccc21 [Entry 176, 2-(4-methyl-3,4-dihydro-2H-1,4-benzoxazin-7-yl)-3-[2-(pyridin-4-yl)ethynyl]benzoic acid] has an IC50 of 10 to 100 µM.
O=C(O)c1cccc(C#Cc2ccncc2)c1-c1ccccc1 [Entry 177, 2-phenyl-3-[2-(pyridin-4-yl)ethynyl]benzoic acid] was tested, and the IC50 was 100 to 1000 µM.
For O=C(O)c1cccc(C#Cc2cc(C(=O)O)c3cc[nH]c3c2)c1 [Entry 178, 6-(3-carboxy-phenylethynyl)-1H-indole-4-carboxylic acid], the IC50 was 1 to 10 µM.
Compound NC(=O)c1cc(C#Cc2cccc(C(=O)O)c2)cc2[nH]ccc12 [Entry 179, 3-(4-carbamoyl-1H-indol-6-ylethynyl)-benzoic acid] has an IC50 of 1 to 10 µM.
Work on NC(=O)c1cccc(C#Cc2cccc(C(=O)O)c2)c1 [Entry 180, 3-(3-carbamoyl-phenylethynyl)-benzoic acid] yielded an IC50 of under 1 µM.
In the case of O=C(O)c1cccc(C#Cc2cn(S(=O)(=O)c3ccccc3)c3ccccc23)c1 [Entry 181, 3-(1-benzenesulfonyl-1H-indol-3-ylethynyl)-benzoic acid], the IC50 is reported as 10 to 100 µM.
In the case of O=C(O)c1cccc(C#Cc2c[nH]c3ccccc23)c1 [Entry 182, 3-(1H-indol-3-ylethynyl)-benzoic acid], the IC50 is reported as 10 to 100 µM.
For COC(=O)c1cccc(C#Cc2cccc(C(=O)O)c2)c1 [Entry 183, 3-(3-carboxy-phenylethynyl)-benzoic acid methyl ester], the IC50 was 100 to 1000 µM.
Work on COc1cc(C#Cc2cccc(C(=O)O)c2)cc(C(N)=O)c1 [Entry 184, 3-(3-carbamoyl-5-methoxy-phenylethynyl)-benzoic acid] yielded an IC50 of 10 to 100 µM.
Work on COc1ccc(-c2c(C#Cc3ccncc3)cccc2C(=O)O)cc1O [Entry 185, 3′-hydroxy-4′-methoxy-6-pyridin-4-ylethynyl-biphenyl-2-carboxylic acid] yielded an IC50 of 100 to 1000 µM.
With COc1cc(O)cc(-c2c(C#Cc3ccncc3)cccc2C(=O)O)c1 [Entry 186, 5′-hydroxy-3′-methoxy-6-pyridin-4-ylethynyl-biphenyl-2-carboxylic acid] the IC50 was 10 to 100 µM.
With O=C(O)c1cccc(C#Cc2ccncc2)c1-c1cc[nH]n1 [Entry 187, 2-(1H-pyrazol-3-yl)-3-pyridin-4-ylethynyl-benzoic acid] the IC50 was 10 to 100 µM.
Work on O=C(O)c1cccc(C#Cc2ccncc2)c1-c1cn[nH]c1 [Entry 188, 2-(1H-pyrazol-4-yl)-3-pyridin-4-ylethynyl-benzoic acid] yielded an IC50 of 100 to 1000 µM.
With Cc1noc(C)c1-c1c(C#Cc2ccncc2)cccc1C(=O)O [Entry 189, 2-(3,5-dimethyl-isoxazol-4-yl)-3-pyridin-4-ylethynyl-benzoic acid] the IC50 was 10 to 100 µM.
In the case of Cc1nn(C)c(C)c1-c1c(C#Cc2ccccc2)cccc1C(=O)O [Entry 190, 3-phenylethynyl-2-(1,3,5-trimethyl-1H-pyrazol-4-yl)-benzoic acid], the IC50 is reported as 100 to 1000 µM.
Work on Cc1ccc(C)n1-c1c(C#CC(C)(C)O)cccc1C(=O)O [Entry 191, 2-(2,5-dimethyl-pyrrol-1-yl)-3-(3-hydroxy-3-methyl-but-1-ynyl)-benzoic acid] yielded an IC50 of 10 to 100 µM.
Cc1ccc(C)n1-c1c(C#Cc2ccncc2)cccc1C(=O)O [Entry 192, 2-(2,5-dimethyl-pyrrol-1-yl)-3-pyridin-4-ylethynyl-benzoic acid] was tested, and the IC50 was 10 to 100 µM.
Compound Cc1ccc(C)n1-c1c(C#Cc2cccc(C(N)=O)c2)cccc1C(=O)O [Entry 193, 3-(3-carbamoyl-phenylethynyl)-2-(2,5-dimethyl-pyrrol-1-yl)-benzoic acid] has an IC50 of 1 to 10 µM.
Cc1ccc(C)n1-c1c(C#Cc2cccc(C(=O)O)c2)cccc1C(=O)O [Entry 194, 3-(3-carboxy-phenylethynyl)-2-(2,5-dimethyl-pyrrol-1-yl)-benzoic acid] gave an IC50 of under 1 µM.
Work on Cc1ccc(C)n1-c1c(C#Cc2cccc(CO)c2)cccc1C(=O)O [Entry 195, 2-(2,5-dimethyl-pyrrol-1-yl)-3-(3-hydroxymethyl-phenylethynyl)-benzoic acid] yielded an IC50 of 10 to 100 µM.
Cc1ccc(C)n1-c1c(C#Cc2c[nH]c3ncccc23)cccc1C(=O)O [Entry 196, 2-(2,5-dimethyl-pyrrol-1-yl)-3-(1H-pyrrolo[2,3-b]pyridin-3-ylethynyl)-benzoic acid] showed an IC50 of 1 to 10 µM.
Cc1ccc(C)n1-c1c(C#CC(O)c2ccccc2)cccc1C(=O)O (stereo not shown) [Entry 197, 2-(2,5-dimethyl-pyrrol-1-yl)-3-(3-hydroxy-3-phenyl-prop-1-ynyl)-benzoic acid] was tested, and the IC50 was 10 to 100 µM.
CC(=O)Nc1cccc(C#Cc2cccc(C(=O)O)c2-n2c(C)ccc2C)c1 [Entry 198, 3-(3-acetylamino-phenylethynyl)-2-(2,5-dimethyl-pyrrol-1-yl)-benzoic acid] gave an IC50 of 10 to 100 µM.
With Cc1ccc(C)n1-c1c(C#CC2CC2)cccc1C(=O)O [Entry 199, 3-cyclopropylethynyl-2-(2,5-dimethyl-pyrrol-1-yl)-benzoic acid] the IC50 was 1 to 10 µM.
COc1cccc(C#Cc2cccc(C(=O)O)c2-n2c(C)ccc2C)c1 [Entry 200, 2-(2,5-dimethyl-pyrrol-1-yl)-3-(3-methoxy-phenylethynyl)-benzoic acid] gave an IC50 of 1 to 10 µM.
O=C(O)c1cccc(C#Cc2ccccc2)c1-c1ccc2cn[nH]c2c1 [Entry 201, 2-(1H-indazol-6-yl)-3-phenylethynyl-benzoic acid] was tested, and the IC50 was 10 to 100 µM.
O=C(O)c1cccc(C#Cc2ccccc2)c1-c1ccc2c(c1)OCO2 [Entry 202, 2-benzo[1,3]dioxol-5-yl-3-phenylethynyl-benzoic acid] showed an IC50 of 10 to 100 µM.
O=C(O)c1cccc(C#Cc2ccccc2)c1-c1ccc2cnccc2c1 [Entry 203, 2-isoquinolin-6-yl-3-phenylethynyl-benzoic acid] showed an IC50 of 10 to 100 µM.
O=C(O)c1cccc(C#Cc2ccccc2)c1-c1cc2ccccc2o1 [Entry 204, 2-benzofuran-2-yl-3-phenylethynyl-benzoic acid] showed an IC50 of 1 to 10 µM.
O=C(O)c1cccc(C#Cc2ccccc2)c1-c1cccc2cccnc12 [Entry 205, 3-phenylethynyl-2-quinolin-8-yl-benzoic acid] was tested, and the IC50 was 10 to 100 µM.
Nc1ncc(-c2c(C#Cc3ccccc3)cccc2C(=O)O)cn1 [Entry 206, 2-(2-amino-pyrimidin-5-yl)-3-phenylethynyl-benzoic acid] gave an IC50 of 100 to 1000 µM.
For CN(C)Cc1ccc(-c2c(C#Cc3ccccc3)cccc2C(=O)O)cc1 [Entry 207, 4′-dimethylaminomethyl-6-phenylethynyl-biphenyl-2-carboxylic acid], the IC50 was 100 to 1000 µM.
Nc1ccc(C#Cc2cccc(C(=O)O)c2-c2ccc3cc[nH]c3c2)cc1 [Entry 208, 3-(4-amino-phenylethynyl)-2-(1H-indol-6-yl)-benzoic acid] gave an IC50 of 1 to 10 µM.
O=C(O)c1ccc(C#Cc2cccc(C(=O)O)c2-c2ccc3cc[nH]c3c2)cc1 [Entry 209, 3-(4-carboxy-phenylethynyl)-2-(1H-indol-6-yl)-benzoic acid] gave an IC50 of under 1 µM.
